We go through one compound from publication PMC10856454, “Discovery of Novel Antitumor Small-Molecule Agent with Dual Action of CDK2/p-RB and MDM2/p53” (Molecules, 2024).

For data set [1], the system named is p-Rb, p-CDK2, MDM2, p53 in OVCAR3 cells. Kind of data set: Western blot of CDK2 pathway, MDM2 and p53 proteins in OVCAR3 cells. Format: cell-based. As for the experimental part: (§1) Total protein from HCT116, OVCAR3 cells and tissues was collected and homogenized in RIPA buffer. The total cellular protein extract was electrophoresed on 12% SDS-polyacrylamide gels and then transferred to a PVDF membrane (Thermo Fisher Scientific, Waltham, MA, USA). Primary antibodies were incubated overnight at 4 °C and secondary antibodies were incubated at room temperature for 1.5 h. Imaging was performed using Image Quant LAS4000 (GE, Boston, MA, USA).
In general terms: Immunoblotting shows a protein as a band on a membrane.

For another data set, the system named is OVCAR3 cells. Put plainly: Cell scratch test (migration), OVCAR3. Format: cell-based. The conditions noted are these: 24 h. As for the experimental part:
Cells were inoculated into six-well plates as long as they spread to the bottom of the wells after wall attachment. After 24 h of wall attachment, cells were scratched with a 200 μL pipette tip and then replaced with low serum medium (1% FBS) containing different concentrations of compounds. Spot photographs were taken at 0 h and 24 h after the scratch was made. Data analysis was performed using Adobe Photoshop 2021 (Adobe Systems Software Ireland Ltd., San Jose, CA, USA) and Image J2 (National Institutes of Health, Bethesda, MD, USA).

Data set [2] concerns p-Rb, MDM2, p53 in HCT116 transplanted tumors. Kind of data set: Western blot of transplanted tumor tissues of nude mice. Format: in vivo, Balb/c nude mice. The settings on record: Western blot of tumor tissue. As for the experimental part:
as §1
HCT116 cells (1 × 10^6) were implanted into the back of adult male Balb/c nude mice by subcutaneous injection. […] The solvent or drug containing solution was administered daily to the vehicle and dosing groups by intraperitoneal injection (0.2 mL/20 g). Tumor growth was measured every three days during treatment. At the end of the treatment, the mice were killed, and the tumors were removed and weighed.

A short description of data set [3]: Caco-2 permeability and transporter substrate evaluation. Format: in vitro ADME. The conditions noted are these: human, Caco-2, 2 μM. The method, then:
Caco-2 cells were cultured in MEM with 20% FBS, penicillin (100 U/mL), and streptomycin (100 μg/mL) at 37 °C in 95% air and 5% CO2. Cells were seeded into 96-well cell plates and cultured continuously for 24 days for subsequent experiments. […] After 120 min of incubation, samples were collected from the apical and basal ends. The […] content of each sample was determined by liquid chromatography–tandem mass spectrometry (LC-MS/MS). The apparent […] coefficient and efflux ratio were calculated.
A general note: Passage across Caco-2 layers is used to estimate intestinal permeability.

The term Papp A→B denotes the apparent permeability from the apical to the basolateral side of a cell layer. For orientation: Papp B→A means how fast a substance crosses the layer from the basolateral side. Broadly, the efflux ratio is the permeability from basolateral to apical divided by that in the opposite direction, in the common usage. Turning to `CC1(C)CCN1C(=O)O[C@@H]1CC[C@H](c2cc(NC(=O)Cc3ccc(N4CCCC4=O)cc3)n[nH]2)C1` [III-13], in data set [1], the MDM2 protein expression result is given as “inhibited” and the p53 expression entry is reported as “significantly elevated”. In data set [1] (OVCAR3 cells), the “expression of p-Rb” value is recorded as “significantly reduced” and the p-CDK2 expression entry is “no significant effect”. The migration rate result in the data set on OVCAR3 cells was “decreased significantly”. Also, in data set [2], the “level of MDM2 in transplanted tumors” value was “significantly down-regulated”, the “level of p53 protein in transplanted tumors” value is “up-regulated” and the “level of p-Rb in the transplanted tumors” value was “significantly reduced”. In data set [3], the Papp A→B at 120 min, 2 µM came to 1.6 ×10⁻⁶ cm/s; the Papp B→A at 120 min, 2 µM is 8.56 ×10⁻⁶ cm/s; the efflux ratio at 120 min, 2 µM was determined as 5.34.
